Where a name gives a salt, the structure may show the parent alone.
Tests used:
[1] = molecular target: T1, serotonin receptors from calf hippocampus (Bos taurus, UniProt F6Q2H9); assay: Serotonin receptor binding (3H-serotonin displacement); settings: read-out: Ki (concentration at which 50% of the 3H-serotonin employed is displaced)
T1 construct: serotonin receptors from calf hippocampus; from tissue; host or cells: calf hippocampus
T1 sequence (F6Q2H9 1-422): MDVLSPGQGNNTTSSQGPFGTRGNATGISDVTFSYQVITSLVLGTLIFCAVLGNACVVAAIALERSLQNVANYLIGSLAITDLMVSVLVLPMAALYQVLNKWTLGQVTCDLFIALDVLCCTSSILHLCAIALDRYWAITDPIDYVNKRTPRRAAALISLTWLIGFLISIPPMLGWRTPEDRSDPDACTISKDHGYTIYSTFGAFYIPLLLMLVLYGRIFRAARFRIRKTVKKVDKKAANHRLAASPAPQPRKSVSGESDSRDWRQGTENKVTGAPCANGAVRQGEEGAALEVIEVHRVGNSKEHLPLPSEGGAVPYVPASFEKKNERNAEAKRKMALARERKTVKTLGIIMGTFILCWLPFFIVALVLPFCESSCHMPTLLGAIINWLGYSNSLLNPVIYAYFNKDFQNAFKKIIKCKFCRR
Source text: The direct or indirect effect on the serotonergic system by, for example, anxiolytic, tranquillising, neuroleptic or antidepressant active compounds is known. Substances according to the invention interact specifically with serotonin receptors from calf hippocampus. The concentration at which 50% of the ^3 H-serotonin employed is displaced is reported (Ki values). Lit.: Peroutka, S. J. and S. H. Snyder, Molec. Pharmacol. 16, 687, 1979.

[2] = tested on: amphetamine-induced stereotypic behaviour; assay: Amphetamine potentiation; assay type: in vivo; settings: ip; rat; i.p.; 2 mg/kg DL-amphetamine sulphate i.v.; read-out: ED50 (dose at which amphetamine-induced behaviour is potentiated by 50%)
Experimental: Substances having antidepressant effects potentiate the amphetamine-inducedstereotypic behaviour of the rat. The ED50 value which is given is the dose at which the behaviour induced after i.v. administration of 2 mg/kg DL-amphetamine sulphate is potentiated by 50%. Lit.: J. L. Howard et al., in: Antidepressants: Neurochemical, Behavioral and Clinical Perspectives, edited by S. J. Enna et al., Raven Press, New York, Pages 107-120, 1981.

[3] = tested on: Passive avoidance behaviour; assay: Passive avoidance behaviour; assay type: in vivo; settings: Rattus norvegicus, ip; rats; i.p.; electric shock, time to re-entry of darkened box; read-out: ED50 (text: minimum effective dose (MED))
Source text: After entering a darkened box, rats receive an electric shock and thus avoid reentering the box. Rats under the influence of anxiolytics enter the box in spite of having experience the shock. The time up to entry into the box is timed with a stopwatch. The minimum effective dose (MED) in mg/kg is reported.

[4] = tested on: shock-induced aggressive behaviour; assay: Tedeschi test; assay type: in vivo; settings: Mus musculus, ip; mice; i.p.; shock-induced aggression; read-out: ED50 (dose at which aggressive behaviour is reduced by 50%)
Source text: In mice, anxiolytics bring about a reduction in the shock-induced aggressive behaviour. The ED50 value indicates the dose at which the aggressive behaviour is reduced by 50% within the period of the experiment.
Lit.: Tedeschi et all, J. Pharmacol. Exp. Ther. 129, 28-34, 1954.

[5] = tested on: immobility; assay: Behavioral Despair; assay type: in vivo; settings: Rattus norvegicus, ip; rats; i.p.; glass cylinder filled with water; read-out: ED50 (dose at which immobility is reduced by 50%)
Source text: When placed in a glass cylinder filled with water, rats initially show vigorous swimming movements which alternate with phases of immobility which increase in length. Many antidepressants of a variety of chemical structures shorten the duration of this immobility. The ED50 value indicates the dose of a test substance at which the immobility during the period of the experiment is reduced by 50%.
Lit.: R. D. Porsolt et al., Europ. J. Pharmacol. 47, 379-391, 1978.

[6] = tested on: ptosis induced by tetrabenazine; assay: Tetrabenazine antagonism; assay type: in vivo; settings: Mus musculus, ip; mice; i.p.; tetrabenazine 20 mg/kg i.p.; read-out: ED50 (dose at which tetrabenazine-induced ptosis is reduced to 50%)
Experimental: Antidepressants antagonise the ptosis induced by tetrabenazine in mice. The ED50 value indicates the dose at which the ptosis induced by tetrabenazine (20 mg/kg i.p.) is reduced to 50%. Lit.: J. L. Howard et al., in: Antidepressants; Neuochemical, Behavioral and Clinical Perspectives, edited by S. J. Enna et al., Raven Press, New York, pages 117-120, 1981.

SMILES | IC50 [1] [nM] | ED50 [2] [mg/kg] | ED50 [4] [mg/kg] | other results
O=C1c2ccccc2C(=O)N1CCCCN1CCN(c2ncccn2)CC1 [Example 1, 2-(4-(4-(2-pyrimidinyl)-1-piperazinyl)butyl)isoindole-1,3(2H)dione] | 10 | 18 | – | –
O=C1c2ccccc2C(=O)N1CCCCN1CCN(c2ncc(-c3ccccc3)cn2)CC1 [Example 4, 2-(4-(4-(5-phenyl-2-pyrimidinyl)-1-piperazinyl)butyl)isoindole-1,3(2H)dion] | – | 3 | 20 | minimal effective dose [3]: 1 mg/kg; ED50 [5]: 12 mg/kg
O=C1c2ccccc2C(=O)N1CCCN1CCN(c2ncc(-c3ccccc3)cn2)CC1 [Example 6, 2-(3-(4-(5-Phenyl-2-pyrimidinyl)-1-piperazinyl)propyl)isoindole-1,3(2H)dione] | – | – | 15 | ED50 [6]: 40 mg/kg
O=C1c2ccccc2S(=O)(=O)N1CCCCN1CCN(c2ncccn2)CC1 [Example 7, 2-(4-(4-(2-Pyrimidinyl)-1-piperazinyl)butyl)-1,2-benzisothiazol-3-(2H)one 1,1-dioxide] | – | – | 5 | minimal effective dose [3]: 0.5 mg/kg
O=C1c2ccccc2C(=O)N1CCCCN1CCN(c2ncc(-c3c(F)cccc3Cl)cn2)CC1 [Example 8, 2-(4-(4-(5-(2-Chloro-6-fluorophenyl)-2-pyrimidinyl)-1-piperazinyl)butyl)-isoindole-1,3(2H)dione] | – | 1 | 12 | ED50 [5]: 33 mg/kg
O=C1c2cc(Cl)ccc2S(=O)(=O)N1CCCCN1CCN(c2ncccn2)CC1 [Example 10] | 14 | – | – | minimal effective dose [3]: 1 mg/kg
O=C1c2ccc(Cl)cc2S(=O)(=O)N1CCCCN1CCN(c2ncccn2)CC1 [Example 11, 2-(4-(4-(2-Pyrimidinyl)-1-piperazinyl)butyl)-6-chloro-1,2-benzisothiazol-3(2H)one 1,1-dioxide] | 30 | – | – | minimal effective dose [3]: 1 mg/kg
COc1ccc(-c2cnc(N3CCN(CCCCN4C(=O)c5ccccc5C4=O)CC3)nc2)cc1OC [Example 12, 2-(4-(4-(5-(3,4-Dimethoxyphenyl)- -2-pyrimidinyl)-1-piperazinyl)butyl)-isoindole-1,3(2H)dione] | – | – | 16 | ED50 [5]: 50 mg/kg
O=C1c2ccccc2C(=O)N1CCN1CCN(c2ncc(-c3ccc(Cl)cc3)cn2)CC1 [Example 15, 1-(2-(4-(5-(4-Chlorophenyl)-2-pyrimidinyl)-1-piperazinyl)ethyl)isoindole-1,3(2H)dione] | – | – | 6 | –
O=C1c2ccccc2C(=O)N1CC(O)CN1CCN(c2ncc(-c3ccc(Cl)cc3)cn2)CC1 (stereo not drawn) [Example 18, 2-(3-(4-(5-(4-chlorophenyl)-2-pyrimidinyl)-1-piperazinyl)-2-hydroxypropyl)isoindole-1,3(2H)dione] | – | – | 9 | ED50 [6]: 21 mg/kg; minimal effective dose [3]: 1 mg/kg
O=C1Cc2ccccc2C(=O)N1CCCCN1CCN(c2ncccn2)CC1 [Example 19, 2-(4-(4-(2-pyrimidinyl)-1-piperazinyl)butyl)isoquinoline-1,3(2H,4H)dione] | 30 | – | – | –
COc1ccc(-c2cnc(N3CCN(CCCCN4C(=O)Cc5ccccc5C4=O)CC3)nc2)cc1OC [Example 20, 2-(4-(4-(5-(3,4-Dimethoxyphenyl)-2-pyrimidinyl)-1-piperazinyl)butyl)-isoquinoline-1,3(2H,4H)dione] | – | 5 | – | –
O=C1c2ccc([N+](=O)[O-])cc2S(=O)(=O)N1CCCCN1CCN(c2ncccn2)CC1 [Example 24, 2-(4-(4-(2-Pyrimidinyl)-1-piperazinyl)butyl)-6-nitro-1,2-benzisothiazol-3(2H)one 1,1-dioxide] | 20 | – | – | –
O=C1Nc2ccccc2S(=O)(=O)N1CCCN1CCN(c2ncccn2)CC1 [Example 32, 2-(3-(4-(2-Pyrimidinyl)-1-piperazinyl)propyl)1,2,4-benzothiadiazin-3(4H)on 1,1-dioxide] | 10 | – | – | –
O=C1Nc2ccccc2S(=O)(=O)N1CCCCN1CCN(c2ncccn2)CC1 [Example 33, 2-(4-(4-(2-Pyrimidinyl)-1-piperazinyl)butyl)-1,2,4-benzothiadiazin-3(4H)one 1,1-dioxide] | 60 | – | – | –
CN1C(=O)N(CCCN2CCN(c3ncccn3)CC2)S(=O)(=O)c2ccccc21 [Example 36, 2-(3-(4-(2-Pyrimidinyl)-1-piperazinyl)propyl)-4-methyl-1,2,4-benzothiadiazin-3(4H)one 1,1-dioxide] | 9 | – | – | –
CN1C(=O)N(CCCCN2CCN(c3ncccn3)CC2)S(=O)(=O)c2ccccc21 [Example 37, 2-(4-(4-(2-Pyrimidinyl)-1-piperazinyl)butyl)-4-methyl-1,2,4-benzothiadiazin-3(4H)one 1,1-dioxide] | 80 | – | – | –
NCCCCN1CCN(c2ncc(-c3ccccc3)cn2)CC1 [Example 49, 1-(4-aminobutyl)-5-(5-phenyl-2-phenyl-2-pyrimidinyl)piperazine] | – | 3 | – | –
NCCCCN1CCN(c2ncc(-c3c(F)cccc3Cl)cn2)CC1 [Example 50, 1-(4-Aminobutyl)-4-(5-(2-fluoro-6-chlorophenyl)-2-pyrimidinyl)piperazinehydrochloride] | – | 3 | 32 | –
CCOC(=O)N1CCN(c2ncc(-c3ccccc3)cn2)CC1 [Example 54, ethyl 4-(5-phenyl-2-pyrimidinyl)-1-piperazinecarboxylate] | – | 0.4 | 10 | minimal effective dose [3]: 5 mg/kg; ED50 [5]: 20 mg/kg
c1ccc(-c2cnc(N3CCNCC3)nc2)cc1 [Example 60, 1-(5-phenyl-2-pyrimidinyl)piperazine] | – | 16 | – | ED50 [6]: 5 mg/kg
Fc1cccc(Cl)c1-c1cnc(N2CCNCC2)nc1 [Example 61, 1-(5-(2-Fluoro-6-chlorophenyl)-2-pyrimidinyl)piperazine] | – | 5 | – | –
c1ccc2c(-c3cnc(N4CCNCC4)nc3)c[nH]c2c1 [Example 64, 1-(5-(3-Indolyl)-2-pyrimidinyl)piperazine] | – | 2 | – | ED50 [6]: 18 mg/kg
